Experimental data: BindingDB's records for doi:10.1002/1439-7633(20010504)2 (University of NeuchÂTel, 2001)

Target: T1, Delta-aminolevulinic acid dehydratase (Escherichia coli (strain K12), UniProt P0ACB2)
T1 sequence (P0ACB2 whole entry): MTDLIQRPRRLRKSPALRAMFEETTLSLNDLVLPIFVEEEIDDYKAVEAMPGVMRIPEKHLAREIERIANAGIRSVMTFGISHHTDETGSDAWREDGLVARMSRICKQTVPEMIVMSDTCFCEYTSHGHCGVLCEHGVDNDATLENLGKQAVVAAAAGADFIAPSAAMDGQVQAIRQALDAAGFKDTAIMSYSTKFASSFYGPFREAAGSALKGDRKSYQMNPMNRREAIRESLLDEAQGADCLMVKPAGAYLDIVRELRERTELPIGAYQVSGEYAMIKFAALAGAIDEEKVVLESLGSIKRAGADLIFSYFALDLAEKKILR
Test: PBGS Assay
Conditions: pH 8.1; 37 °C
Text: The PBGS assay is a colorimetric assay based on the reaction between PBG and 4-dimethylaminobenzaldehyde (Ehrlich's reagent).

Work on `CC(=O)CCC(=O)O` [Substrate analogue, 8] yielded a Ki of 2.2 mM.

Work on `O=C(O)CCCCNC(=O)CC[N+](=O)[O-]` [Substrate analogue, 33] yielded a Ki of 18.2 mM.

`CC(=O)NCC(=O)O` [Substrate analogue, 15] gave a Ki of 18.8 mM.

`O=C(O)CCC(=O)CF` [Substrate analogue, 9] was tested, and the Ki was 0.085 mM.

For `COC(=O)CC[N+](=O)[O-]` [Substrate analogue, 19], the Ki was 1.88 mM.

Compound `O=C(O)CCC(=O)O` [Succinic acid, 6] has a Ki of 12.5 mM.

Compound `CC(=O)CC[N+](=O)[O-]` [Substrate analogue, 17] has a Ki of 0.028 mM.

In the case of `COC(=O)CCC(=O)NCC(=O)CCC(=O)O` [Substrate analogue, 24], the Ki is reported as 0.243 mM.

Work on `O=C(O)CC[N+](=O)[O-]` [Substrate analogue, 20] yielded a Ki of 44.9 mM.

For `O=C(O)CCCCNC(=O)CCC(=O)O` [Substrate analogue, 32], the Ki was 22.9 mM.

For `CC(=O)OCC(=O)O` [Substrate analogue, 13], the Ki was 24.5 mM.

`COC(=O)CCC(=O)NCC(=O)CC[N+](=O)[O-]` [Substrate analogue, 28] showed a Ki of 0.02 mM.

`O=C(O)CCC(=O)CCCCC[N+](=O)[O-]` [Substrate analogue, 31] showed a Ki of 4.9 mM.

`CNC(=O)CCC(=O)O` [Substrate analogue, 12] was tested, and the Ki was 36.4 mM.

In the case of `O=C(CF)CC[N+](=O)[O-]` [Substrate analogue, 18], the Ki is reported as 0.021 mM.

`NCC(=O)OCC(=O)O` [Substrate analogue, 14] was tested, and the Ki was 18.2 mM.

`COC(=O)CCC(=O)O` [Substrate analogue, 10] was tested, and the Ki was 38.4 mM.
